For data set [1] the following is noted: cited from earlier work.
For data set [2] the following is noted: human, single oral dose of 200 mg; cited from earlier work.
For a further data set, the system named is COX-2 and COX-1 enzymes. Particulars: cited from earlier work; for inhibition of COX-2 relative to COX-1: in vitro.
Data set [3] concerns AMPK phosphorylation in H2009, H441, H23, H2122 NSCLC cell lines. The experiment in a line: Immunoblot of AMPK Thr172 phosphorylation after 2-DG. The format is cell-based, human. The note with it: 20 mM 2-DG, 1 hour; LKB1 positive H2009, H441 vs LKB1 negative H23, H2122. Here is the method:
(§1) FIG. 3 (in three panels, A, B and C) illustrates the effect of 2-deoxyglucose (2-DG) in LKB1 null and LKB1 expressing NSCLC cells. FIG. 3A is an immunoblot of LKB1 in H23, H2122, H2009 and H441 NSCLC cell lines. GAPDH was used as a loading control. FIG. 3B illustrates an immunoblot showing the induction of AMPK phosphorylation by 2-DG. LKB1 positive (H2009, H441) and LKB1 negative (H23, H2122) cell lines were treated with 20 mM of 2-DG for 1 hour. Protein lysates were immunoblotted with an antibody specific to phosphorylated Thr172 AMPK. It is noted that 2-DG induces phosphorylation at Thr172 only in LKB1 expressing cells. Both AMPK and GAPDH were used as loading controls. The blot is representative of two independent experiments. C-LKB1 null NSCLC cell are more sensitive to 2-DG. […] NSCLC cell lines were treated for 48 hours with indicated concentrations of 2-DG. Bars represent standard error.
To investigate the role of LKB1 in the effectiveness of 2-DG treatment, four NSCLC cell lines (H23, H2122, H441, H2009) were screened by immunoblot for LKB1 expression (FIG. 3A).
(§2) Cells were incubated on ice for 30 minutes with a lysis buffer containing 10 mM Tris-HCL, 150 mM NaCl and 1% IGEPAL (Sigma). […] Protein concentration was determined using the Bio-Rad DC protein kit. […]

In data set [4] the test system is LKB1 positive lines (H2009). The data set can be described thus: Microarray gene expression profiling of 2-DG-treated cells. Format: cell-based, human. Here is the method:
(§3) To test this hypothesis, apoptosis-related transcripts of H23 (LKB1 null) and H2009 (LKB1 positive) cells were compared by treatment with either low (2.5 mM) or high dose (20 mM) 2-DG or vehicle (PBS) for 6 hours followed by microarray-based assessment of gene expression. […] LKB1 negative (H23, H2122) and positive (H2009, H441) NSCLC cell lines were treated with decreasing doses of 2-deoxyglucose (2-DG) for 72 hours. Cell viability, markers of apoptosis (e.g. PARP, Caspases), and gene expression profiles were evaluated from treated versus untreated samples. Total RNA was extracted from cells using TRIzol (Invitrogen) followed by RNeasy Mini Kit purification (Qiagen) according to manufacturers specifications. Spectrophotometric analysis was performed on a NanoDrop ND-1000 (Thermo Scientific) and RNA quality was assessed on a BioAnalyzer 2100 (Agilent) using strict RNA integrity QC cutoffs. 500 ng of RNA was labeled and hybridized (in duplicate) to Agilent 4×44K Whole Human Genome One-Color Oligo Microarrays according to manufacturer specifications. Slides were scanned using the Agilent Microarray Scanner (model […]) and processed with Agilent's Feature Extraction software (v. 9.5.1). Comparative and statistical analyses for gene expression profiles, were carried out using GeneSpring 7.3. Apoptosis-related genes of interest were identified by key word search (“apoptosis”) followed by unsupervised hierarchical clustering. Significance values were determined by comparing expression of all LKB1+ samples (grouped) to all LKB1- samples (grouped) for each gene using the Student's t-test and a p<0.05 cutoff after multiple testing correction using the false discovery rate (FDR) method.

Data set [5] relates to LKB1 negative cell lines (H23). The description is as above. Format: cell-based, human. How it is done: as §3
The subject of data set [6] is H23-LKB1 cells. The data set can be described thus: Immunoblot of cleaved PARP. Format: cell-based, human. The note with it: H23 re-expressing LKB1; 20 mM 2-DG, 24 hours. How it is done: (§4) FIG. 4 (in panels A through F) illustrates in graphs and immunoblots that 2-DG induces apoptosis in LKB1 null NSCLC cells. […] Bars represent standard error and the studies were repeated twice. FIG. 4B is an immunoblot of cleaved PARP. H23 and H2009 cells were treated for 24 hours with 20 mM of 2-DG. […] GAPDH was used as a loading control. FIG. 4C is an immunoblot of LKB1 and KDLKB1 in H23 cells after retroviral infection and puromycin selection. GAPDH was used as a loading control. FIG. 4D is an immunoblot that illustrates 2-DG activation of LKB1 in H23-LKB1, but not H23-KDLKB1 cells. The blot was stripped and probed for AMPK as a loading control. The blot represents two independent studies. FIG. 4E is a graph that illustrates that LKB1, but not KDLKB1 prevents activation of caspase 3 and 7 in H23 cells. H23-LKB1 and H23-KDLKB1 cells were treated for 24 hours with 20 mM 2-DG before analysis as described hereinafter. Bars represent standard error, and the study was repeated twice. FIG. 4F is an immunoblot of cleaved PARP in H23-LKB1 and H23-KDLKB1 after treatment with 20 mM of 2-DG for 24 hours. Blot is representative of two independent studies. GAPDH was used as a loading control. […]
as §2

The next data set has as its system mTOR in LKB1 null cells. The data set can be described thus: mTOR activation in cells treated with 2-DG. The format is cell-based. Particulars: LKB1 null cells treated with 2-DG.
Data set [7] relates to H23 cells. The experiment in a line: Caspase 3/7 activity (Caspase-Glo 3/7). The format is cell-based, human. Particulars: H23 (LKB1 null); increasing doses of 2-DG, 24 hours. Here is the method: as §4, with “hours.” for “hours. Blot is representative of two independent studies. GAPDH was used as a loading control.”
(§5) Cell lines were plated at a density of 5000 cells per well in 96 well plates. […] Activity of caspases 3 and 7 were determined using a Caspase-Glo® 3/7 kit (Promega) according to manufacturer's instructions and scanned using a Beckman Coulter DTX 880 plate reader. […]

The test system of data set [8] is H23-LKB1 cells. The experiment in a line: Caspase 3/7 activity (Caspase-Glo 3/7). Format: cell-based, human. The note with it: H23 re-expressing LKB1; 20 mM 2-DG, 24 hours. Here is the method: as §4, with “hours.” for “hours. Blot is representative of two independent studies. GAPDH was used as a loading control.”
as §5

Data set [9] has as its system LKB1 null NSCLC cells (H23, H2122). The data set can be described thus: Cell viability after 2-DG (CellTiter Blue). Format: cell-based, human. The note with it: 48 hours. How it is done: as §1
(§6) Because LKB1-AMPK signaling can affect cell growth or cell number, the number of viable LKB1 null and LKB1 positive cells were compared after treatment with 2-DG for a range of concentrations, over time.
(§7) LKB1 negative (H23, H2122) and positive (H2009, H441) NSCLC cell lines were treated with decreasing doses of 2-deoxyglucose (2-DG) for 72 hours. Cell viability, markers of apoptosis (e.g. PARP, Caspases), and gene expression profiles were evaluated from treated versus untreated samples.
(§8) Cell lines were plated at a density of 2500 cells per well in 96 well plates. After attachment, 2-DG was diluted in media at indicated concentrations and added to wells. Treatment was carried out for 48 hours in standard cell culture conditions, before cell viability was assessed using the CellTiter® Blue kit (Promega) according to manufacturer's instructions and read on a Beckman Coulter DTX 880. The percentage of viable cells was determined by normalizing treated samples to vehicle (PBS).
A general note: Resazurin is reduced to fluorescent resorufin, in cell work by metabolically active cells.

Data set [10] relates to LKB1 positive NSCLC cells (H2009, H441). The data set can be described thus: Cell viability after 2-DG (CellTiter Blue). The format is cell-based, human. Particulars: 20 mM 2-DG, 48 hours. Here is the method:
as §1, §6, §7, §8

Data set [11] relates to H23 cells. The data set can be described thus: Immunoblot of cleaved PARP. The format is cell-based, human. The note with it: 20 mM 2-DG, 24 hours. Here is the method:
as §4, §2
In general terms: In western blotting, separated proteins are transferred to a membrane and probed.

For data set [12], the system named is H23-LKB1 cells. The experiment in a line: Immunoblot of AMPK phosphorylation after 2-DG. The format is cell-based, human. Particulars: H23-LKB1 cells treated with 2-DG. Here is the method:
as §4, §2

A further data set deals with H23-KDLKB1 cells. The experiment in a line: Immunoblot of AMPK phosphorylation after 2-DG. Particulars: H23-KDLKB1 cells treated with 2-DG. The format is cell-based, human. How it is done:
as §4, §2

The source of these data is patent US20110091574A1, “TREATMENT OF ADENOCARCINOMA EXPRESSING LKB1 WITH MTOR INHIBITOR IN COMBINATION WITH COX2 INHIBITOR” (Catholic Healthcare West, priority 2008, published 2011).

The structures appear in SMILES notation.

What is called Cmax is the maximum level reached in the sampled fluid or tissue.

Regarding `Cc1ccc(-c2cc(C(F)(F)F)nn2-c2ccc(S(N)(=O)=O)cc2)cc1` [celecoxib], the cardiovascular side effects result in [1] (long-term use at 400 mg once daily, or 200 mg or 400 mg twice daily) was “severe cardiovascular side effects”. In [2], the maximum concentration (Cmax) is 709 ng/mL.
Take `CC(C)Cc1ccc(C(C)C(=O)O)cc1` (stereo not shown) [ibuprofen]: the “inhibition of COX-2 relative to COX-1” value in the data set with COX-2 and COX-1 enzymes is reported as “sevenfold”.
Turning to `CC(=O)Oc1ccccc1C(=O)O` [aspirin], the “inhibition of COX-2 relative to COX-1” value in the data set with COX-2 and COX-1 enzymes is “about equipotent”.
Turning to `Cc1ccc(Nc2c(F)cccc2Cl)c(CC(=O)O)c1` [lumiracoxib], the “relative degree of selectivity for COX-2 over COX-1 (rank order)” value in the data set with COX-2 and COX-1 enzymes is given as “lumiracoxib=etoricoxib>valdecoxib=rofecoxib>>celecoxib”.
For the compound `O=CC[C@@H](O)[C@H](O)[C@H](O)CO` [2-DG, 2-deoxyglucose], in data set [3], the “activation of AMPK (phosphorylation at Thr172)” value was “induced LKB1 dependent activation of AMPK”. The “expression of pro-apoptotic markers” value in data set [4] was “no changes in expression”; in data set [5] (LKB1 negative cell lines, 2-DG-treated), “increase in the expression of pro-apoptotic markers”. Besides, the “expression of BCL-2 and BCL-2 interacting proteins” value in data set [5] (H23 (LKB1 null), 2.5 mM or 20 mM 2-DG, 6 hours, microarray) was “dose dependent changes”. Besides, the “cleavage of PARP” value in the data set on H23-LKB1 cells [6] is recorded as “prevented cleavage of PARP”. The mTOR activation entry in the data set with mTOR in LKB1 null cells is “increased mTOR activation”. Besides, the “activation of caspases 3 and 7” value in the data set on H23 cells [7] was “dose dependent activation of caspases 3 and 7”. In addition, the “2-DG induced activation of caspase 3 and 7” value in the data set with H23-LKB1 cells [8] was “prevented 2-DG induced activation of caspase 3 and 7”. The cell viability result is “significant decrease in cell viability” in [9] (LKB1 negative cells, 20 mM 2-DG) and “significant decrease in cell viability” in data set [10]. Besides, in data set [9] (LKB1 null cells, all doses, lowest 2.5 mM, p=5.73×10^−13), the “cell viability compared to LKB1 positive cells” value was “significant decrease in cell viability for all doses tested”. Also, the “cleaved PARP (marker of apoptosis)” value in the data set on H23 cells [11] is given as “present”. Moreover, the figures for the “phosphorylation of AMPK” value in the data set with H23-LKB1 cells [12] and with H23-KDLKB1 cells were “capable of phosphorylating AMPK” and “does not”, respectively.
In the case of `CS(=O)(=O)c1ccc(C2=C(c3ccccc3)C(=O)OC2)cc1` [rofecoxib], the “increased risk of cardiovascular toxicities” value in data set [1] (trial to prevent adenomas) was “two-fold”. Also, the “potency at inhibiting COX-2 relative to COX-1” value in the data set on COX-2 and COX-1 enzymes is “about 300 times”.
Turning to `Cc1ccc(-c2ncc(Cl)cc2-c2ccc(S(C)(=O)=O)cc2)cn1` [etoricoxib], the “relative degree of selectivity for COX-2 over COX-1 (rank order)” value with COX-2 and COX-1 enzymes is reported as “lumiracoxib=etoricoxib>valdecoxib=rofecoxib>>celecoxib”.
